Experimental data taken from PubChem BioAssay AID1259407 (Chemical Carcinogenesis Research Information System (CCRIS), 2018).
Activity calls are given as the source filed them. The rule behind the calls is not given here.

Tested on: CCRIS mutagenicity, Ames/micronucleus/aberration tests
Test: CCRIS mutagenicity studies
[1] = Test System: AMES SALMONELLA TYPHIMURIUM, Strain/Indicator: TA98, Metabolic Activation: NONE, Method: STANDARD PLATE
[2] = Test System: AMES SALMONELLA TYPHIMURIUM, Strain/Indicator: TA98, Metabolic Activation: RAT, LIVER, S-9, AROCLOR 1254, Method: STANDARD PLATE
[3] = Test System: AMES SALMONELLA TYPHIMURIUM, Strain/Indicator: TA100, Metabolic Activation: NONE, Method: STANDARD PLATE
[4] = Test System: AMES SALMONELLA TYPHIMURIUM, Strain/Indicator: TA100, Metabolic Activation: RAT, LIVER, S-9, AROCLOR 1254, Method: STANDARD PLATE
[5] = Test System: AMES SALMONELLA TYPHIMURIUM, Strain/Indicator: TA1538, Metabolic Activation: RAT, LIVER, S-9, AROCLOR 1254, Method: STANDARD PLATE
[6] = Test System: AMES SALMONELLA TYPHIMURIUM, Strain/Indicator: TA98, Metabolic Activation: NONE, Method: PREINCUBATION

Nc1cc(C(F)(F)F)ccc1Cl
mutagenic call [1]: inactive; negative | mutagenic call [2]: inactive; negative | mutagenic call [3]: inactive; negative | mutagenic call [4]: inactive; negative | mutagenic call (Test System: AMES SALMONELLA TYPHIMURIUM, Strain/Indicator: TA1535, Metabolic Activation: NONE, Method: STANDARD PLATE): inactive; negative | mutagenic call (Test System: AMES SALMONELLA TYPHIMURIUM, Strain/Indicator: TA1535, Metabolic Activation: RAT, LIVER, S-9, AROCLOR 1254, Method: STANDARD PLATE): inactive; negative | mutagenic call (Test System: AMES SALMONELLA TYPHIMURIUM, Strain/Indicator: TA1537, Metabolic Activation: NONE, Method: STANDARD PLATE): inactive; negative | mutagenic call (Test System: AMES SALMONELLA TYPHIMURIUM, Strain/Indicator: TA1537, Metabolic Activation: RAT, LIVER, S-9, AROCLOR 1254, Method: STANDARD PLATE): inactive; negative | mutagenic call (Test System: AMES SALMONELLA TYPHIMURIUM, Strain/Indicator: TA1538, Metabolic Activation: NONE, Method: STANDARD PLATE): inactive; negative | mutagenic call [5]: inactive; negative

Cc1ccc(C=O)cc1
mutagenic call [6]: inactive; negative | mutagenic call (Test System: AMES SALMONELLA TYPHIMURIUM, Strain/Indicator: TA98, Metabolic Activation: RAT, LIVER, S-9, AROCLOR 1254, Method: PREINCUBATION): inactive; negative | mutagenic call (Test System: AMES SALMONELLA TYPHIMURIUM, Strain/Indicator: TA100, Metabolic Activation: NONE, Method: PREINCUBATION): inactive; negative | mutagenic call (Test System: AMES SALMONELLA TYPHIMURIUM, Strain/Indicator: TA100, Metabolic Activation: RAT, LIVER, S-9, AROCLOR 1254, Method: PREINCUBATION): inactive; negative | mutagenic call (Test System: AMES SALMONELLA TYPHIMURIUM, Strain/Indicator: TA102, Metabolic Activation: NONE, Method: PREINCUBATION): inactive; negative | mutagenic call (Test System: AMES SALMONELLA TYPHIMURIUM, Strain/Indicator: TA102, Metabolic Activation: RAT, LIVER, S-9, AROCLOR 1254, Method: PREINCUBATION): inactive; negative

CCOC(=O)C(=NNc1ccc(-c2ccc(NN=C(C(=O)OCC)C(=O)OCC)cc2)cc1)C(=O)OCC
mutagenic call (Test System: AMES SALMONELLA TYPHIMURIUM, Strain/Indicator: TA98, Metabolic Activation: HAMSTER, LIVER, S-9, Method: PREINCUBATION (PRIVAL METHOD)): inactive; negative

Cc1c(/C=N/OCc2ccccc2)c2cc([N+](=O)[O-])ccc2n1Cc1cccc([N+](=O)[O-])c1
mutagenic call [1]: active; positive | mutagenic call (Test System: AMES SALMONELLA TYPHIMURIUM, Strain/Indicator: TA98, Metabolic Activation: RAT, LIVER, S-9, PHENOBARBITAL AND BETA-NAPHTHOFLAVONE, Method: STANDARD PLATE): active; positive | mutagenic call [3]: inactive; negative | mutagenic call (Test System: AMES SALMONELLA TYPHIMURIUM, Strain/Indicator: TA100, Metabolic Activation: RAT, LIVER, S-9, PHENOBARBITAL AND BETA-NAPHTHOFLAVONE, Method: STANDARD PLATE): inactive; negative

Nc1cc(S(=O)(=O)O)cc2cc(S(=O)(=O)O)c(N=Nc3ccccc3)c(O)c12
mutagenic call [1]: inactive; negative | mutagenic call (Test System: AMES SALMONELLA TYPHIMURIUM, Strain/Indicator: TA98, Metabolic Activation: RAT LIVER S-9, AROCLOR 1254, Method: STANDARD PLATE): inactive; negative | mutagenic call [3]: inactive; negative | mutagenic call (Test System: AMES SALMONELLA TYPHIMURIUM, Strain/Indicator: TA100, Metabolic Activation: RAT LIVER S-9, AROCLOR 1254, Method: STANDARD PLATE): inactive; negative

O=C(CCCl)N=c1sn(C(=O)CCCl)c2ccccc12
mutagenic call (Test System: AMES SALMONELLA TYPHIMURIUM, Strain/Indicator: TA100, Metabolic Activation: S-9, Method: STANDARD PLATE): inactive; negative

OC1c2c(ccc3c2ccc2ccccc23)C2OC2C1O (stereo not given)
mutagenic call [6]: active; positive | mutagenic call (Test System: CHINESE HAMSTER V-79, Strain/Indicator: V-79/6-THIOGUANINE, Metabolic Activation: NONE): active; positive

COc1cccc(C=O)c1
mutagenic call (Test System: MOUSE LYMPHOMA, Strain/Indicator: L5178Y (TK+/TK-), Metabolic Activation: NONE, Method: SUSPENSION/PLATE): inactive; negative

O=C1NC(=O)C(CBr)=C1Cl
mutagenic call [3]: active; positive

Nc1nc2c(s1)CC[C@@H]1NCCC[C@@H]21
mutagenic call [5]: inactive; negative

[Pt+2].[S-]CCCCl.[S-]CCCCl
mutagenic call (Test System: AMES SALMONELLA TYPHIMURIUM, Strain/Indicator: TA92, Metabolic Activation: NONE, Method: STANDARD PLATE): inactive; negative | mutagenic call [1]: inactive; negative | mutagenic call [3]: active; positive | mutagenic call (Test System: AMES SALMONELLA TYPHIMURIUM, Strain/Indicator: TA2410, Metabolic Activation: NONE, Method: STANDARD PLATE): active; positive

CC(=O)OCC(=O)NCCCOc1cccc(CN2CCCCC2)c1
mutagenic call (Test System: AMES SALMONELLA TYPHIMURIUM, Strain/Indicator: TA98, Metabolic Activation: NONE): inactive; negative | mutagenic call (Test System: AMES SALMONELLA TYPHIMURIUM, Strain/Indicator: TA98, Metabolic Activation: RAT, LIVER, S-9, PHENOBARBITAL AND 5,6-BENZOFLAVONE): inactive; negative | mutagenic call (Test System: AMES SALMONELLA TYPHIMURIUM, Strain/Indicator: TA100, Metabolic Activation: NONE): inactive; negative | mutagenic call (Test System: AMES SALMONELLA TYPHIMURIUM, Strain/Indicator: TA100, Metabolic Activation: RAT, LIVER, S-9, PHENOBARBITAL AND 5,6-BENZOFLAVONE): inactive; negative | mutagenic call (Test System: AMES SALMONELLA TYPHIMURIUM, Strain/Indicator: TA1535, Metabolic Activation: NONE): inactive; negative | mutagenic call (Test System: AMES SALMONELLA TYPHIMURIUM, Strain/Indicator: TA1535, Metabolic Activation: RAT, LIVER, S-9, PHENOBARBITAL AND 5,6-BENZOFLAVONE): inactive; negative | mutagenic call (Test System: AMES SALMONELLA TYPHIMURIUM, Strain/Indicator: TA1537, Metabolic Activation: NONE): inactive; negative | mutagenic call (Test System: AMES SALMONELLA TYPHIMURIUM, Strain/Indicator: TA1537, Metabolic Activation: RAT, LIVER, S-9, PHENOBARBITAL AND 5,6-BENZOFLAVONE): inactive; negative | mutagenic call (Test System: AMES SALMONELLA TYPHIMURIUM, Strain/Indicator: TA1538, Metabolic Activation: NONE): inactive; negative | mutagenic call (Test System: AMES SALMONELLA TYPHIMURIUM, Strain/Indicator: TA1538, Metabolic Activation: RAT, LIVER, S-9, PHENOBARBITAL AND 5,6-BENZOFLAVONE): inactive; negative | mutagenic call (Test System: E. COLI, Strain/Indicator: WP2 UVRA, Metabolic Activation: NONE): inactive; negative | mutagenic call (Test System: E. COLI, Strain/Indicator: WP2 UVRA, Metabolic Activation: RAT, LIVER, S-9, PHENOBARBITAL AND 5,6-BENZOFLAVONE): inactive; negative

C1=Cc2cc3cccc4c5ccccc5c5ccc1c2c5c34
mutagenic call (Test System: AMES SALMONELLA TYPHIMURIUM, Strain/Indicator: TA98, Metabolic Activation: RAT, LIVER, S-9, AROCLOR 1254 (0.14 OR 0.41 MG), Method: STANDARD PLATE): active; positive | mutagenic call (Test System: AMES SALMONELLA TYPHIMURIUM, Strain/Indicator: TA100, Metabolic Activation: RAT, LIVER, S-9, AROCLOR 1254 (0.14 OR 0.41 MG), Method: STANDARD PLATE): active; positive | mutagenic call (Test System: AMES SALMONELLA TYPHIMURIUM, Strain/Indicator: TA104, Metabolic Activation: RAT, LIVER, S-9, AROCLOR 1254 (0.14 OR 0.41 MG), Method: STANDARD PLATE): active; positive | mutagenic call (Test System: AMES SALMONELLA TYPHIMURIUM, Strain/Indicator: TA1535, Metabolic Activation: RAT, LIVER, S-9, AROCLOR 1254 (0.14 OR 0.41 MG), Method: STANDARD PLATE): inactive; negative | mutagenic call (Test System: AMES SALMONELLA TYPHIMURIUM, Strain/Indicator: TA1537, Metabolic Activation: RAT, LIVER, S-9, AROCLOR 1254 (0.14 OR 0.41 MG), Method: STANDARD PLATE): active; positive | mutagenic call (Test System: AMES SALMONELLA TYPHIMURIUM, Strain/Indicator: TA1538, Metabolic Activation: RAT, LIVER, S-9, AROCLOR 1254 (0.14 OR 0.41 MG), Method: STANDARD PLATE): active; positive

c1ccc2c(c1)ccc1c3cccnc3ccc21
mutagenic call [2]: active; positive | mutagenic call [4]: active; positive
